# Key:
# [1] = system: Lewis小鼠肺癌细胞(LLC); assay: Anti-metastasis activity: Lewis lung carcinoma (LLC) implanted in C57BL/6 mice, lung metastasis nodules counted; type: in vivo, C57BL/6小鼠; settings: oral, 0.5μmol/kg/天; for Inhibition of tumour lung metastasis (result in words): 12 days, LLC-bearing C57BL/6 mice; for Anti-metastasis activity compared with RGDS (20μmol/kg/天) and compound 8 (5μmol/kg/天): RGDS dose 40-fold higher, compound 8 dose 10-fold higher
# [2] = system: S180; assay: Anti-tumour growth activity in S180 tumour-bearing mice (tumour weight); type: in vivo, ICR小鼠; settings: oral, 0.5μmol/kg/天; for Inhibition of tumour growth (result in words): 12 days, S180 mice; for Anti-tumour growth activity compared with compound 8 (5μmol/kg/天): compound 8 dose 10-fold higher
# [3] = system: 二甲苯引起的小鼠耳肿胀; assay: Anti-inflammatory activity: xylene-induced mouse ear swelling; type: in vivo, ICR小鼠; settings: oral, 0.5μmol/kg; for Inhibition of xylene-induced mouse ear swelling (result in words): xylene 30 min after dosing, ears taken 2 h later; for Anti-inflammatory activity compared with compound 8 (5μmol/kg): compound 8 dose 10-fold higher
smiles,measurement,setting,value
"NC(=O)CC[C@H](N)C(=O)NCCCCCC(=O)NCCCC[C@H]1NC(=O)[C@@H](Cc2c[nH]c3ccccc23)NC1=O [化合物6a, (3R,6R)-3-(Gln-氨基正己酰基氨基正丁基)-6-(吲哚-3-甲基)-哌嗪-2,5-二酮]",Inhibition of tumour lung metastasis (result in words),[1],有效地抑制肿瘤肺转移
same,Anti-metastasis activity compared with RGDS (20μmol/kg/天) and compound 8 (5μmol/kg/天),[1],没有显著性差异
same,Inhibition of tumour growth (result in words),[2],有效地抑制肿瘤生长
same,Anti-tumour growth activity compared with compound 8 (5μmol/kg/天),[2],没有显著性差异
same,Inhibition of xylene-induced mouse ear swelling (result in words),[3],有效地抑制二甲苯引起的小鼠耳肿胀
same,Anti-inflammatory activity compared with compound 8 (5μmol/kg),[3],没有显著性差异
"NC(=O)C[C@H](N)C(=O)NCCCCCC(=O)NCCCC[C@H]1NC(=O)[C@@H](Cc2c[nH]c3ccccc23)NC1=O [化合物6b, (3R,6R)-3-(Asn-氨基正己酰基氨基正丁基)-6-(吲哚-3-甲基)-哌嗪-2,5-二酮]",Inhibition of tumour lung metastasis (result in words),[1],有效地抑制肿瘤肺转移
same,Anti-metastasis activity compared with RGDS (20μmol/kg/天) and compound 8 (5μmol/kg/天),[1],没有显著性差异
same,Inhibition of tumour growth (result in words),[2],有效地抑制肿瘤生长
same,Anti-tumour growth activity compared with compound 8 (5μmol/kg/天),[2],没有显著性差异
same,Inhibition of xylene-induced mouse ear swelling (result in words),[3],有效地抑制二甲苯引起的小鼠耳肿胀
same,Anti-inflammatory activity compared with compound 8 (5μmol/kg),[3],没有显著性差异
